Source: patent US10633375B2, “Oxopicolinamide derivative, preparation method therefor and pharmaceutical use thereof” (Jiangsu Hengrui Medicine Co., Ltd., priority 2016, dated 2020)

Molecular target: Coagulation Factor XIa protease (Homo sapiens (Human), UniProt P03951)
Test: Inhibition of Factor XIa detected by absorption photometry
Format: biochemical
Conditions: absorbance at 405 nm, 10 minutes at 37° C.
Description: Test Example 1: Biological Activity of the Compounds of the Present Invention on
The Inhibition of Factor XIa Detected by Absorption Photometry
1. Experimental Materials
Enzyme: Coagulation Factor XIa protease (Abcam, Art. No ab62411)
Substrate: Coagulation Factor XIa specific substrate (HYPHEN1310 med, Art. No. Biophen cs-21(66))
2. Experimental Procedure
20 mM of test compound dissolved in 100% DMSO was diluted to 200, 20, 2, 0.2, 0.02, 0.002 μM with 100% DMSO; 1 μl of the compound was added to each well in a 384-well plate, blank and control wells were replaced with DMSO. The plate was centrifuged to remove the compound to the bottom. 10 μl (2.5 μg/ml) of FXIa enzyme solution was added to each well, and 10 μl of buffer was added to the blank well. The plate was centrifuged to remove the enzyme solution to the bottom.
Finally, 10 μl of 2 mM substrate were added to each well, and the plate was centrifuged to remove the substrate solution to the bottom.
The plate was incubated for 10 minutes at 37° C.; and then the absorbance was measured at 405 nm.

Sequence of Coagulation Factor XIa protease (P03951 388-625): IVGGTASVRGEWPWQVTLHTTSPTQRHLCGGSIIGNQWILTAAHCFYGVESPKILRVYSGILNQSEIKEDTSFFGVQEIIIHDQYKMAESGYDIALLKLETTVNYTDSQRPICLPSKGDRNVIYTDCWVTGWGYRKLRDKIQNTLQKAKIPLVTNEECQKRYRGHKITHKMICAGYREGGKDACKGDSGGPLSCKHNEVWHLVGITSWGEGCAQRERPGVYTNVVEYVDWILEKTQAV
Sequence of Coagulation Factor XIa protease (P03951 19-387 partner): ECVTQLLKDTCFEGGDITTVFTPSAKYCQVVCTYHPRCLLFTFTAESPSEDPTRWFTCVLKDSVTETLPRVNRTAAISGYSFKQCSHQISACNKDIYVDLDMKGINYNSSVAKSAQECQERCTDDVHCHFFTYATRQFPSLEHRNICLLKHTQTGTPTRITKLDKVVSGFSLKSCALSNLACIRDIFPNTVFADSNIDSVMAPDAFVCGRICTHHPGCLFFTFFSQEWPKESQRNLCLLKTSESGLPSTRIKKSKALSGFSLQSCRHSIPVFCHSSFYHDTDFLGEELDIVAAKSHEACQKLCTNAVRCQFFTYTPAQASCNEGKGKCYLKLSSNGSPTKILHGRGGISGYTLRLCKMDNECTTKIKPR

| SMILES | IC50 |
| --- | --- |
| COc1cn(C(Cc2cccc(C#N)c2)C(=O)Nc2ccc(C(=O)O)cc2)c(=O)cc1-c1cc(Cl)ccc1C(C)=O (centres unmarked) [Example 88, 4-(2-(4-(2-acetyl-5-chlorophenyl)-5-methoxy-2-oxopyridin-1(2H)-yl)-3-(3-cyanophenyl)propanamido)benzoic acid] | 74 nM |
| COc1cn([C@H](CC2CCC2)C(=O)Nc2ccc(C(=O)O)cc2)c(=O)cc1-c1cc(Cl)ccc1C(C)=O [Example 172, (R)-4-(2-(4-(2-acetyl-5-chlorophenyl)-5-methoxy-2-oxopyridin-1(2H)-yl)-3-cyclobutylpropanamido)benzoic acid] | 8920 nM |
| COc1cn(C(Cc2ccccc2C)C(=O)Nc2ccc(C(=O)O)cc2)c(=O)cc1-c1cc(Cl)ccc1C(C)=O (centres unmarked) [Example 66, 4-(2-(4-(2-acetyl-5-chlorophenyl)-5-methoxy-2-oxopyridin-1(2H)-yl)-3-(o-tolyl)propan amido)benzoic acid] | 34 nM |
| COc1cn(C(Cc2ccc(F)cc2F)C(=O)Nc2ccc(C(=O)O)cc2)c(=O)cc1-c1cc(Cl)ccc1C(C)=O (centres unmarked) [Example 65, 4-(2-(4-(2-acetyl-5-chlorophenyl)-5-methoxy-2-oxopyridin-1(2H)-yl)-3-(2,4-difluorophenyl)propanamido)benzoic acid] | 43 nM |
| COc1cn(C(Cc2ccc(NC(=O)C3CC3)cc2)C(=O)Nc2ccc(C(=O)O)cc2)c(=O)cc1-c1cc(Cl)ccc1C(C)=O (centres unmarked) [Example 16, 4-(2-(4-(2-acetyl-5-chlorophenyl)-5-methoxy-2-oxopyridin-1(2H)-yl)-3-(4-(cyclopropanecarboxamido)phenyl)propanamido)benzoic acid] | 100 nM |
| COc1cn(C(Cc2ccc(C)cc2)C(=O)Nc2ccc(C(=O)O)cc2)c(=O)cc1-c1cc(Cl)ccc1C(C)=O (centres unmarked) [Example 74, 4-(2-(4-(2-acetyl-5-chlorophenyl)-5-methoxy-2-oxopyridin-1(2H)-yl)-3-(p-tolyl)propanamido)benzoic acid] | 100 nM |
| COc1cn(C(Cc2ccc(Cl)cc2)C(=O)Nc2ccc(C(=O)O)cc2)c(=O)cc1-c1cc(Cl)ccc1C(C)=O (centres unmarked) [Example 69, 4-(2-(4-(2-acetyl-5-chlorophenyl)-5-methoxy-2-oxopyridin-1 (2H)-yl)-3-(4-chlorophenyl)propanamido)benzoic acid] | 49 nM |
| CCC(=O)c1ccc(Cl)cc1-c1cc(=O)n(C(Cc2ccccc2)C(=O)Nc2ccc3cn[nH]c3c2)cc1OC (centres unmarked) [Example 27, 2-(4-(5-chloro-2-propionylphenyl)-5-methoxy-2-oxopyridin-1(2H)-yl)-N-(1H-indazol-6-yl)-3-phenylpropanamide] | 66 nM |
| CCCCC(C(=O)Nc1ccc(C(=O)O)cc1)n1cc(OC)c(-c2cc(Cl)ccc2C(C)=O)cc1=O (centres unmarked) [Example 155, 4-(2-(4-(2-acetyl-5-chlorophenyl)-5-methoxy-2-oxopyridin-1(2H)-yl)hexanamido)benzoic acid] | 81 nM |
| COc1cn([C@@H](CC2CC2)C(=O)Nc2ccc(C(=O)O)cc2)c(=O)cc1-c1cc(Cl)ccc1C(C)=O [Example 168, (S)-4-(2-(4-(2-acetyl-5-chlorophenyl)-5-methoxy-2-oxopyridin-1(2H)-yl)-3-cyclopropylpropanamido)benzoic acid] | 43 nM |
| COc1cn(C(Cc2ccccc2C#N)C(=O)Nc2ccc(C(=O)O)cc2)c(=O)cc1-c1cc(Cl)ccc1C(C)=O (centres unmarked) [Example 87, 4-(2-(4-(2-acetyl-5-chlorophenyl)-5-methoxy-2-oxopyridin-1(2H)-yl)-3-(2-cyanophenyl)propanamido)benzoic acid] | 73 nM |
| CCC(=O)c1ccc(Cl)cc1-c1cc(=O)n([C@H](CCOC(C)(C)C)C(=O)Nc2ccc3nccnc3c2)cc1OC [Example 115, (R)-4-(tert-butoxy)-2-(4-(5-chloro-2-propionylphenyl)-5-methoxy-2-oxopyridin-1(2H)-yl)-N-(quinoxalin-6-yl)butanamide] | > 10000 nM |
| COc1cn(C(Cc2cccc(C)c2)C(=O)Nc2ccc(C(=O)O)cc2)c(=O)cc1-c1cc(Cl)ccc1C(C)=O (centres unmarked) [Example 67, 4-(2-(4-(2-acetyl-5-chlorophenyl)-5-methoxy-2-oxopyridin-1(2H)-yl)-3-(m-tolyl)propan amido)benzoic acid] | 35 nM |
| COc1cn(C(Cc2ccc(C#N)cc2)C(=O)Nc2ccc(C(=O)O)cc2)c(=O)cc1-c1cc(Cl)ccc1C(C)=O (centres unmarked) [Example 90, 4-(2-(4-(2-acetyl-5-chlorophenyl)-5-methoxy-2-oxopyridin-1(2H)-yl)-3-(4-cyanophenyl)propanamido)benzoic acid] | 100 nM |
| COc1cn(C(CC2CC2)C(=O)Nc2ccc(C(=O)O)cc2)c(=O)cc1-c1cc(Cl)ccc1C(C)=O (centres unmarked) [Example 167, 4-(2-(4-(2-acetyl-5-chlorophenyl)-5-methoxy-2-oxopyridin-1(2H)-yl)-3-cyclopropylpropanamido)benzoic acid] | 92 nM |
| COc1cn([C@H](Cc2ccccc2)C(=O)Nc2ccc3nn(C)cc3c2)c(=O)cc1-c1cc(Cl)ccc1C(C)=O [Example 19, (R)-2-(4-(2-acetyl-5-chlorophenyl)-5-methoxy-2-oxopyridin-1(2H)-yl)-N-(2-methyl-2H-indazol-5-yl)-3-phenylpropanamide] | 5690 nM |
| COc1cn(C(Cc2cnn(C)c2)C(=O)Nc2ccc(C(=O)O)cc2)c(=O)cc1-c1cc(Cl)ccc1C(C)=O (centres unmarked) [Example 103, 4-(2-(4-(2-acetyl-5-chlorophenyl)-5-methoxy-2-oxopyridin-1(2H)-yl)-3-(1-methyl-1H-pyrazol-4-yl)propanamido)benzoic acid] | 70 nM |
| CCCC(=O)c1ccc(Cl)cc1-c1cc(=O)n(C(Cc2ccccc2)C(=O)Nc2ccc(C(=O)O)cc2)cc1OC (centres unmarked) [Example 21, 4-(2-(4-(2-butyryl-5-chlorophenyl)-5-methoxy-2-oxopyridin-1 (2H)-yl)-3-phenylpropan amido)benzoic acid] | 36 nM |
| COc1cn(C(Cc2ccccc2)C(=O)Nc2ccc3cnccc3c2)c(=O)cc1-c1cc(Cl)ccc1C(C)=O (centres unmarked) [Example 46, 2-(4-(2-acetyl-5-chlorophenyl)-5-methoxy-2-oxopyridin-1 (2H)-yl)-N-(isoquinolin-6-yl)-3-phenylpropanamide] | 71 nM |
| COc1ccccc1CC(C(=O)Nc1ccc(C(=O)O)cc1)n1cc(OC)c(-c2cc(Cl)ccc2C(C)=O)cc1=O (centres unmarked) [Example 78, 4-(2-(4-(2-acetyl-5-chlorophenyl)-5-methoxy-2-oxopyridin-1(2H)-yl)-3-(2-methoxyphenyl)propanamido)benzoic acid] | 72 nM |
| COc1cn(C(Cc2ccccc2Cl)C(=O)Nc2ccc(C(=O)O)cc2)c(=O)cc1-c1cc(Cl)ccc1C(C)=O (centres unmarked) [Example 70, 4-(2-(4-(2-acetyl-5-chlorophenyl)-5-methoxy-2-oxopyridin-1 (2H)-yl)-3-(2-chlorophenyl)propanamido)benzoic acid] | 54 nM |
| COc1cn(C(Cc2ccccn2)C(=O)Nc2ccc(C(=O)O)cc2)c(=O)cc1-c1cc(Cl)ccc1C(C)=O (centres unmarked) [Example 79, 4-(2-(4-(2-acetyl-5-chlorophenyl)-5-methoxy-2-oxopyridin-1(2H)-yl)-3-(pyridin-2-yl)propanamido)benzoic acid] | 45 nM |
| CCC(=O)c1ccc(Cl)cc1-c1cc(=O)n(C(CCOC(C)(C)C)C(=O)Nc2ccc3ncncc3c2)cc1OC (centres unmarked) [Example 121, 4-(tert-butoxy)-2-(4-(5-chloro-2-propionylphenyl)-5-methoxy-2-oxopyridin-1(2H)-yl)-N-(quinazolin-6-yl)butanamide] | 67 nM |
